Experimental data reported in patent US10392383B2, “3-(1H-benzo[d]imidazol-2-yl)-1H-pyrazolo[4,3-b]pyridines and therapeutic uses thereof” (Samumed, LLC, priority 2015, dated 2019).

Columns and labels:
IL-6 (THP-1 cells) = experiment: IL-6 inhibition in LPS-stimulated THP-1 monocytes (HTRF); format: cell-based; conditions: Homo sapiens, IL-6 HTRF; for EC50: 500 ng/mL LPS, Table 6; for inhibition at 10 µM: LPS, Table 6, read-out: percent inhibition at 10 μM (given in parentheses for EC50 >10 μM)
Method in brief: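 THP-1 cells in 1% FBS pre-incubated 2 h with compound (10-point 1:3 series from 10 μM, 0.1% DMSO), then stimulated with 500 ng/mL LPS for 22 h at 37 °C. IL-6 measured by HTRF 665/620 ratio, normalized to DMSO; EC50 by four-parameter fit, or % inhibition at 10 μM when EC50 >10 μM.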

[1] = system: Wnt activity (Sp5-Luc reporter, Wnt-responsive promoter) in SW480 colon carcinoma cells; experiment: Wnt activity screening assay: Sp5-Luc reporter gene assay in SW480 cells; format: cell-based; conditions: Homo sapiens; for inhibition at 10 µM: read-out: percent inhibition at 10 μM (given for EC50 of >10 μM); for EC50: overnight incubation, 10-point curve starting from 10 μM
Method in brief: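 SW480 cells stably transduced with an Sp5 promoter (eight TCF/LEF sites)–firefly luciferase lentiviral reporter, plated at 4,000 cells/well in 1% FBS medium with compounds (10-point 1:3 series from 10 μM, 0.1% DMSO) overnight at 37 °C. BrightGlo luminescence normalised to DMSO; EC50 by four-parameter fit, else % inhibition at 10 μM.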

| EC50 (IL-6 (THP-1 cells)) [nM] | EC50 [1] [µM] | SMILES | inhibition at 10 µM [1] [%] | inhibition at 10 µM (IL-6 (THP-1 cells)) [%] |
| --- | --- | --- | --- | --- |
| 8320 | > 10 | CN1CCN(c2cccc3[nH]c(-c4n[nH]c5ccc(-c6cncc(N)c6)nc45)nc23)CC1 [Compound 227, 5-(3-(4-(4-Methylpiperazin-1-yl)-1H-benzo[d]imidazol-2-yl)-1H-pyrazolo [4,3-b]pyridin-5-yl)pyridin-3-amine] | 48.8 |  |
| 1740 | 2.54 | CC(C)Nc1cncc(-c2ccc3[nH]nc(-c4nc5c(-c6cccnc6)cccc5[nH]4)c3n2)c1 [Compound 96, N-Isopropyl-5-(3-(4-(pyridin-3-yl)-1H-benzo[d]imidazol-2-yl)-1H-pyrazolo [4,3-b]pyridin-5-yl)pyridin-3-amine] |  |  |
| > 10000 | > 10 | c1ccc(COc2cncc(-c3ccc4[nH]nc(-c5nc6c(-c7ccncc7)cccc6[nH]5)c4n3)c2)cc1 [Compound 582, 5-(5-(Benzyloxy)pyridin-3-yl)-3-(4-(pyridin-4-yl)-1H-benzo[d]imidazol-2-yl)-1H-pyrazolo[4,3-b]pyridine] | 39.1 | 2.8 |
| 1400 | > 10 | c1ccc2[nH]c(-c3n[nH]c4ccc(-c5cncc(OC6CCNCC6)c5)nc34)nc2c1 [Compound 656, 3-(1H-Benzo[d]imidazol-2-yl)-5-(5-(piperidin-4-yloxy)pyridin-3-yl)-1H-pyrazolo[4,3-b]pyridine] | 4.9 |  |
| 1090 | > 10 | O=C(Cc1ccccc1)Nc1cncc(-c2ccc3[nH]nc(-c4nc5ccccc5[nH]4)c3n2)c1 [Compound 262, N-(5-(3-(1H-Benzo[d]imidazol-2-yl)-1H-pyrazolo[4,3-b]pyridin-5-yl)pyridin-3-yl)-2-phenylacetamide] | 11.2 |  |
| > 10000 | > 10 | Cc1ccncc1-c1ccc2[nH]nc(-c3nc4c(-c5ccncc5)cccc4[nH]3)c2n1 [Compound 117, 5-(4-Methylpyridin-3-yl)-3-(4-(pyridin-4-yl)-1H-benzo[d]imidazol-2-yl)-1H-pyrazolo[4,3-b]pyridine] | 44.9 | 51.4 |
| > 10000 | > 10 | CS(=O)(=O)NCc1cc(F)cc(-c2cccc3[nH]c(-c4n[nH]c5ccc(-c6cncc(NC(=O)c7ccccc7)c6)nc45)nc23)c1 [Compound 487, N-(5-(3-(4-(3-Fluoro-5-(methylsulfonamidomethyl)phenyl)-1H-benzo[d]imidazol-2-yl)-1H-pyrazolo[4,3-b]pyridin-5-yl)pyridin-3-yl)benzamide] | 0 | 0 |
| 164 | 0.48 | Cc1ncc(-c2ccc3[nH]nc(-c4nc5c(-c6cc(F)cc(NCCN(C)C)c6)cccc5[nH]4)c3n2)n1C [Compound 781, N^1-(3-(2-(5-(1,2-Dimethyl-1H-imidazol-5-yl)-1H-pyrazolo[4,3-b]pyridin-3-yl)-1H-benzo[d]imidazol-4-yl)-5-fluorophenyl)-N^2,N^2-dimethylethane-1,2-diamine] |  |  |
